Read-outs that look alike come from different tables or passages of the source.
Tests used:
[1] = test system: acute respiratory distress syndrome (ARDS); settings: human, in vivo; cited from earlier work
[2] = cited from earlier work
COPD exacerbations = settings: in vivo; cited from earlier work
[3] = cited from earlier work; remark: listed apart in the source
[4] = test system: patients with community-acquired pneumonia; settings: compared to conventional therapy; cited from earlier work
[5] = test system: epithelial cells exposed to the H5N1 influenza A virus; settings: cited from earlier work
HIV patients = settings: cited from earlier work
[6] = after ingestion of supplemental nicotinamide; cited from earlier work
premature new-borns = settings: 20 mg/kg/day; cited from earlier work
[7] = cited from earlier work; remark: listed apart in the source
[8] = cited from earlier work; remark: listed apart in the source
[9] = cited from earlier work; remark: listed apart in the source
[10] = test system: lamb model with increased pulmonary blood flow; settings: chronic treatment; cited from earlier work
[11] = test system: acute myocardial infarction; settings: five controlled trials, n=3108; cited from earlier work
[12] = test system: patients with chronic hepatitis C; settings: 2 grams 2 times a day, compared to placebo; cited from earlier work
[13] = test system: LPS-induced acute lung injury; settings: in vivo; cited from earlier work
mice = settings: cited from earlier work
blood NAD+ [14] = settings: cited from earlier work
[15] = cited from earlier work; remark: listed apart in the source
blood NAD+ [16] = settings: cited from earlier work; remark: listed apart in the source
[17] = test system: Pasteurella multocida infection; settings: mouse, in vivo; cited from earlier work
[18] = test system: adults with hereditary sensory and autonomic neuropathy type 1 (HSAN1); settings: 400 mg/kg/day, long-term (one to two years); cited from earlier work
traumatic brain injury = settings: mouse, in vivo; cited from earlier work
[19] = test system: obese subjects with hepatic steatosis; test: Short-term dietary supplementation with serine in obese subjects with hepatic steatosis; assay type: in vivo, human
Protocol: To test the model-based predictions, we assessed the effect of short-term dietary supplementation with serine on fatty liver and fasting levels of plasma markers of liver functions in six obese subjects (BMI 32.5±2.70 kg/m2) with hepatic steatosis. Each patient received one oral dose of ˜20 g of L-serine (200 mg/kg) per day for 14 days. The supplementation was well-tolerated by all subjects. […] We examined the concept by testing if supplementation of GSH and NAD+ precursors for two weeks would decrease high fat diet induced liver fat accumulation in mice. Therefore, we gave serine 300 mg/kg/day and nicotinamide riboside (NR) 400 mg/kg/day la gavage as well as 1 g/l of NAC (N-acetyl-L-cysteine) in the drinking water for 14 days to high fat diet-fed mice.

[20] = cited from earlier work; remark: listed apart in the source
aging mice = settings: mouse, in vivo; cited from earlier work

## CC(=O)N[C@@H](CS)C(=O)O [NAC, N-acetylcysteine]
[1]
  duration of stay in intensive care: has been shortened
  short-term mortality or 30-day mortality: did not contribute to reducing short-term mortality or 30-day mortality
[2]; HIV-infected patients, oral 6,000-8,000 mg daily for several months
  safety profile: good safety profile
[2]; daily dosage of 4-6 grams
  safety in humans: shown to be safe
[2]; even at very high doses
  serious adverse events or signs of intoxication: serious adverse events or signs of intoxication are not observed
[2]; in vivo
  incidence of most common adverse reactions (rash, urticaria/facial flushing, pruritus, nausea and vomiting): greater than 2%
[2]; within 30 min after IV loading dose
  anaphylactic reactions, share of people: 3-6%
COPD exacerbations
  number and effect of COPD exacerbations: reduce the number and effect of COPD exacerbations
[3]; adults
  half-life: 5.6 to 6 h
[3]; after application
  time to peak plasma concentration: 30 to 60 min
[3]; after oral administration
  absorption: rapidly absorbed
  share of amount passed to the blood determined in the lungs: 48%
[3]; in vivo
  distribution volume (Vd): 0.33 to 0.47 L/kg
  excreted in urine in the form of sulfate and taurine: 22-30%
  rate of binding to plasma proteins: about 50%
[3]; oral
  effect of food intake: not affected
[4]
  inflammatory response and oxidative stress: improves inflammatory response and oxidative stress
[5]
  inflammatory response: reduce
HIV patients; 900 mg or 1800 mg twice daily
  glutathione levels in red blood cells: increased significantly
  red blood cell oxidized glutathione levels: decreased significantly
HIV patients; both doses compared to placebo
  glutathione: glutathione disulfide (GSH:GSSG) ratios: generally non-significant increased

## NC(=O)c1cccnc1 [nicotinamide]
[6]
  flushing or glucose intolerance: no cases of flushing or glucose intolerance have been reported

## C[N+](C)(C)CC(O)CC(=O)[O-] (stereo not shown) [carnitine]
Premature new-borns
  total carnitine concentrations in plasma and red blood cells: increases total carnitine concentrations in plasma and red blood cells
[7]; doses of approximately 3 g/day
  side effects: nausea, vomiting, abdominal cramps, diarrhoea, and a “fishy” body odor

## C[N+](C)(C)C[C@H](O)CC(=O)[O-] [L-carnitine]
[8]; in vivo
  absolute bioavailability: 15-16%
  faecal excretion of total carnitine: less than 1 % of the administered dose
  mean apparent terminal elimination half-life: 17.4 h
  mean distribution half-life: ~0.6 h
  removal from plasma by dialysis: easily removed from plasma by dialysis
  total body clearance (Dose/AUC including endogenous baseline concentrations), mean: 4.00 L/h
[8]; tested at any concentration
  binding to plasma protein or albumin: not bound
[9]
  solubility in acetone: insoluble
  solubility in water, hot alcohol: readily soluble
[7]; in vivo
  tolerability: usually well tolerated
  toxicity from over dosage: no reports of toxicity
[10]
  lung carnitine homeostasis, oxidative stress, mitochondrial and endothelial function: alleviates changes in lung carnitine homeostasis, reduces associated oxidative stress, and improves pulmonary mitochondrial function, NO signalling and eventually endothelial function
[11]
  heart failure, unstable angina, or myocardial reinfarction: daily 2 g versus 6 g: no significant differences

## CC(=O)O[C@H](CC(=O)[O-])C[N+](C)(C)C [Acetyl-L-Carnitine]
[12]
  daily activity and fatigue: increase daily activity in patients, reduce fatigue

## O=C(O)c1cccnc1 [niacin]
[13]
  LPS-induced acute lung injury: alleviate LPS-induced acute lung injury

## CC(=O)N[C@@H](CSN=O)C(=O)O [SNOAC, S-nitroso-N-acetylcysteine]
mice; in vitro and in vivo
  expression of several important genes: induced a hypoxia-like response
mice; metabolite formed in mice treated with acetylcysteine
  blood pressure in lungs and right ventricle (pulmonary artery hypertension): increased blood pressure in the lungs and right ventricle of the heart

## NC(=O)c1ccc[n+]([C@@H]2O[C@H](CO)[C@@H](O)[C@H]2O)c1 [NR, Nicotinamide riboside]
Blood NAD+ [14]; single doses of 100, 300 and 1,000 mg
  blood NAD+ metabolome: dose-dependent increases
Blood NAD+ [14]; single oral dose, pilot study
  rise of human blood NAD+: ≤ 2.7 fold
[15]; 90-day study
  lowest observed adverse effect level: 1000 mg/kg/day
  no observed adverse effect level: 300 mg/kg/day
[15]; oral dose of 5000 mg/kg
  mortality: no mortality
Blood NAD+ [16]; oral, 250 mg up-titrated to 1000 mg twice daily, 9 days
  tolerability: well tolerated with no adverse events
Blood NAD+ [16]; p=0.001
  increase of blood NAD+, baseline to steady state: 100%
Blood NAD+ [16]; p=0.03
  whole-blood NR, baseline to mean concentration at steady state: Significant increases

## N[C@@H](CO)C(=O)O [L-serine]
[17]
  macrophage- and neutrophil-mediated inflammatory responses: decrease the macrophage- and neutrophil-mediated inflammatory responses
[18]
  adverse effects (vital signs, physical examination, clinical laboratory): did not reveal adverse effects
Traumatic brain injury
  neuroprotection: lead to neuroprotection
[19]; after 14 days supplementation
  ALT, AST, and ALP levels: significantly decreased
[19]; after ~20 g L-serine (200 mg/kg) oral per day for 14 days, decreased significantly from 26.8±6.0%
  liver fat: 20.4±7.0%
[19]; ~20 g L-serine per day for 14 days
  tolerability: well-tolerated
[20]; doses up to 400 mg/kg/day (around 25-30 g/day)
  safety in humans: shown to be safe
[20]; three daily doses of 5 g (190 mg/kg), pre- and postnatal treatment of 3-phosphoglycerate-dehydrogenase deficiency
  safety in pregnancy: safe even in pregnancy
Aging mice
  body weight, oxidative stress and inflammation: reduce body weight by decreasing orexigenic peptide expression and reduces oxidative stress and inflammation

Reference: patent US20220088044A1, “SUBSTANCES FOR TREATMENT OF CORONAVIRUS INFECTION” (ScandiBio Therapeutics AB, priority 2020, published 2022)
